In patent US20230148599A1, “FUNGICIDAL MIXTURES CONTAINING PYRAZOLE DERIVATIVES” (FMC Corporation, priority 2020, published 2023):

What was measured:
Format in all cases: in vivo
Details in all cases: 50 ppm, 100 = 100% disease control, 0 = no control
Septoria tritici = test: Test A: wheat leaf blotch, preventive spray on wheat seedlings
Procedure, shortened: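 Wheat seedlings sprayed to run-off with compound suspended in acetone/water with 250 ppm PEG400 surfactant, inoculated next day with Septoria tritici spores. Held 48 h saturated at 24 °C, then 17 days at 20 °C; disease rated 0–100% control relative to controls.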

[1] = system: Puccinia recondita f. sp. tritici; test: Test B: wheat leaf rust, preventive spray on wheat seedlings
Procedure, shortened: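 Wheat seedlings were sprayed to run-off with compound suspended at ppm concentrations in acetone/water containing 250 ppm PEG400. The next day they were inoculated with Puccinia recondita f. sp. tritici spores, held saturated at 20 °C for 24 h, then kept 7 days at 20 °C. Disease control was rated 0–100% relative to untreated controls.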

[2] = system: Blumeria graminis f. sp. tritici; test: Test C: wheat powdery mildew, preventive spray on wheat seedlings
Procedure, shortened: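 Seedlings were sprayed to run-off with compound suspended (ppm) in 50/50 acetone–water containing 250 ppm PEG400, then spore-dust inoculated the following day. After 8 days at 20° C, disease control was rated visually from 0 to 100 against controls.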

Phakopsora pachyrhizi = test: Test D: Asian soybean rust, preventive spray on soybean seedlings
Procedure, shortened: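 Compounds in acetone/water (50/50) with 250 ppm PEG400, dosed in ppm, sprayed to run-off on soybean seedlings; inoculated with P. pachyrhizi spores next day. Held 24 h at 22 °C in saturated air, then 8 days at 22 °C; visual rating of disease control, 0–100, relative to untreated controls.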

Botrytis cinerea = test: Test E: tomato Botrytis, preventive spray on tomato seedlings
Procedure, shortened: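 Compound suspended in 50/50 acetone/water with 250 ppm PEG400 surfactant and sprayed to run-off on tomato seedlings; Botrytis cinerea spores applied the next day. Incubation 48 h at 20° C in saturated atmosphere, then 3 days at 24° C. Visual rating 0–100% disease control relative to controls.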

Alternaria solani = test: Test F: tomato early blight, preventive spray on tomato seedlings
Procedure, shortened: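 Tomato seedlings were sprayed to run-off with compound suspended in acetone/water (50/50) with 250 ppm PEG400 and inoculated with Alternaria solani spores the next day. Plants were held 48 h at 27 °C in saturated humidity, then 3 days at 20 °C. Disease control was rated visually from 0 to 100 against untreated controls.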

| SMILES | Test A disease control rating (Septoria tritici) [%] | Test B disease control rating [1] [%] | Test C disease control rating [2] [%] | Test D disease control rating (Phakopsora pachyrhizi) [%] | Test E disease control rating (Botrytis cinerea) [%] | Test F disease control rating (Alternaria solani) [%] |
| --- | --- | --- | --- | --- | --- | --- |
| Cc1nn(C)c(Nc2c(Cl)cccc2[N+](=O)[O-])c1-c1c(F)cccc1Cl [compound 38] | 100 | 99 | 95 | 0 | 88 | 0 |
| Cc1nn(C)c(Nc2ccc(Br)cc2[N+](=O)[O-])c1-c1ccc(F)cc1Br [compound 21] | 100 | 86 | 84 | 0 | 95 | 17 |
| Cc1ccc(Nc2c(-c3c(F)cc(F)cc3Br)c(C)nn2C)c([N+](=O)[O-])c1 [compound 196] | 100 | 99 | 98 | 0 | 98 | 91 |
| Cc1nn(C)c(Nc2c(Cl)cc(F)cc2[N+](=O)[O-])c1-c1ccc(Cl)cc1F [compound 176] | 100 | 97 | 0 | 0 | 9 | 0 |
| Cc1nn(C)c(Nc2c(Cl)cc(Cl)cc2[N+](=O)[O-])c1-c1ccc(F)cc1Cl [compound 59] | 100 | 100 | 99 | 96 | 99 | 92 |
| Cc1nn(C)c(Nc2ccccc2[N+](=O)[O-])c1-c1ccc(F)cc1F [compound 190] | 100 | 32 | 91 | 0 | 100 | 9 |
| COc1cc(F)c(-c2c(C)nn(C)c2Nc2c(Cl)cc(Cl)cc2[N+](=O)[O-])c(F)c1 [compound 82] | 100 | 100 | 58 | 59 | 96 | 97 |
| Cc1nn(C)c(Nc2c(Cl)cccc2[N+](=O)[O-])c1-c1ccc(F)cc1F [compound 79] | 100 | 100 | 91 | 44 | 98 | 0 |
| Cc1cccc([N+](=O)[O-])c1Nc1c(-c2ccc(F)cc2F)c(C)nn1C [compound 177] | 100 | 97 | 50 | 0 | 100 | 9 |
| Cc1nn(C)c(Nc2c(F)cc(F)cc2[N+](=O)[O-])c1-c1ccc(C#N)cc1Cl [compound 120] | 100 | 100 | 89 | 44 | 100 | 99 |
| COc1ccc(Nc2c(-c3c(F)cc(F)cc3Br)c(C)nn2C)c([N+](=O)[O-])c1 [compound 164] | 100 | 100 | 98 | 0 | 100 | 99 |
| Cc1nn(C)c(Nc2c(Cl)cc(F)cc2[N+](=O)[O-])c1-c1ccc(F)cc1F [compound 67] | 100 | 100 | 89 | 69 | 98 | 33 |
| CCc1nn(C)c(Nc2c(F)cc(C)cc2[N+](=O)[O-])c1-c1ccc(F)cc1Cl [compound 137] | 100 | 100 | 100 | 91 | 99 | 99 |
| Cc1nn(C)c(Nc2ccccc2[N+](=O)[O-])c1-c1c(F)cc(F)cc1F [compound 149] | 100 | 80 | 97 | 0 | 99 | 96 |
| Cc1nn(C)c(Nc2c(F)cccc2[N+](=O)[O-])c1-c1c(F)cccc1F [compound 63] | 100 | 99 | 86 | 0 | 100 | 96 |
| Cc1nn(C)c(Nc2ccc(Cl)cc2[N+](=O)[O-])c1-c1ccc(F)cc1Cl [compound 92] | 100 | 96 | 89 | 0 | 100 | 79 |
| Cc1nn(C)c(Nc2c(F)cccc2[N+](=O)[O-])c1-c1c(F)cc(C#N)cc1F [compound 114] | 100 | 98 | 99 | 73 | 100 | 99 |
| COc1cc(F)c(Nc2c(-c3ccc(C#N)cc3Cl)c(C)nn2C)c([N+](=O)[O-])c1 [compound 166] | 99 | 100 | 98 | 98 | 99 | 100 |
| Cc1nn(C)c(Nc2c(Cl)cccc2[N+](=O)[O-])c1-c1c(F)cc(F)cc1F [compound 158] | 99 | 100 | 99 | 87 | 99 | 83 |
| Cc1nn(C)c(Nc2c(Cl)cc(Br)cc2[N+](=O)[O-])c1-c1ccc(F)cc1Cl [compound 8] | 99 | 99 | 92 | 73 | 99 | 73 |
| Cc1nn(C)c(Nc2c(F)cccc2[N+](=O)[O-])c1-c1c(F)cc(Cl)cc1F [compound 151] | 100 | 100 | 99 | 0 | 99 | 99 |
